# Read-outs that look alike come from different tables or passages of the source.
# Tests used:
# [1] = tested on: BDNF mRNA in CCF-STTG1 cells; assay: qPCR of BDNF steady-state mRNA; format: cell-based, human; conditions: 3 hr
# U87MG cells = assay: BDNF secretion by in situ ELISA, U87MG; conditions: 72 hrs treatment
# CCF-STTG1 cells = assay: BDNF secretion by in situ ELISA, CCF-STTG1; conditions: for BDNF secretion from CCF-STTG1 cells, compound alone: 72 hrs treatment
# BV-2 cells = assay: BDNF secretion by in situ ELISA, BV-2; format: cell-based, murine; conditions: 10 μM
# human S1R [2] = target: T1, human S1R (Homo sapiens, UniProt Q99720); assay: Competition binding with [3H]-
# T1 sequence (Q99720 whole entry): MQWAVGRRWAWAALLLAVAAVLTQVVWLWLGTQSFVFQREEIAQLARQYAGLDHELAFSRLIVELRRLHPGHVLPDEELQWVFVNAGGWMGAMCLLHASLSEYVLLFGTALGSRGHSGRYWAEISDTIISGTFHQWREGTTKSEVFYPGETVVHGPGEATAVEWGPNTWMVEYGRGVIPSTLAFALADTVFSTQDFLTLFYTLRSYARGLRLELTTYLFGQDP
# human S2R = human S2R (Homo sapiens, UniProt Q5BJF2); assay: Competition binding with [3H]DTG at S2R in untransfected MCF-7 cells; conditions: for IC50: read-out: IC50 at S2R; for IC50 / Ki: MCF-7, ± SEM; for Ki: read-out: Ki at S2R
# Sequence of human S2R (Q5BJF2 whole entry): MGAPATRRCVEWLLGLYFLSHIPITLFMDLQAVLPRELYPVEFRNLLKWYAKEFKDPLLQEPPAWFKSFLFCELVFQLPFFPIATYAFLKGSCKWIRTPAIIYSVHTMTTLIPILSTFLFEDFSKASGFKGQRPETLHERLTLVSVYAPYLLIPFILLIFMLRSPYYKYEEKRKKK
# EP2R = conditions: 10 μM; ref af Forselles et al., 2011; cited from earlier work
# human S1R [3] = target: T1, human S1R; conditions: ref Lee et al., 2008, cited from earlier work
# ischemic stroke = conditions: acute low dose 0.05 mg/kg, s.c., rats; ref Schetz et al., 2007; cited from earlier work
# [4] = 15 nM, Fractional Occupancy = [ligand]/([ligand]+Ki)
molecule,measurement,setting,value
"OC(CCCN1CCC(O)(c2ccc(Cl)cc2)CC1)c1ccc(F)cc1 (racemic) [reduced haloperidol, (±)-4-(4-Chlorophenyl)-α-(4-fluorophenyl)-4-hydroxy-1-piperidinebutanol]",effect on BDNF mRNA levels,[1]; 10 μM,no effect on BDNF mRNA levels
same,"BDNF secretion from U87MG cells, compound alone",U87MG cells,facilitated BDNF secretion
same,"BDNF secretion from CCF-STTG1 cells, compound alone",CCF-STTG1 cells,facilitated BDNF secretion
c1ccc(CCCCN2CCC(c3ccccc3)CC2)cc1 [4-PPBP],"BDNF secretion from BV-2 cells, compound alone",BV-2 cells,failed to significantly stimulate the secretion of detectable levels of BDNF
same,BDNF signal above DMSO vehicle,"BV-2 cells; BV-2 cells, P = 0.4",1.1 ± 0.06 fold
same,effect on BDNF mRNA levels,[1]; 10 μM,no effect on BDNF mRNA levels
same,"BDNF secretion from CCF-STTG1 cells, compound alone",CCF-STTG1 cells,facilitated BDNF secretion
CN1CCN(CCc2ccc(Cl)c(Cl)c2)CC1 [BD1063],expected S1R occupancy,human S1R [2]; 2 nM,27%
same,calculated S1R occupancy,human S1R [2]; [4],74%
same,Ki(S2R)/Ki(S1R) selectivity,human S1R [2]; S1R over S2R,37 fold
same,IC50,"human S1R [2]; read-out: IC50 at S1R, [3H]-(+)-pentazocine, MCF-7-S1R, ± SEM",0.0065 ± 0.00087 µM
same,Ki,"human S1R [2]; read-out: Ki at S1R, [3H]-(+)-pentazocine, MCF-7-S1R, ± SEM",0.0053 ± 0.00071 µM
same,calculated S2R occupancy,human S2R; [4],7%
same,IC50,human S2R; [3H]-DTG,0.208 ± 0.03 µM
same,Ki,human S2R; [3H]-DTG,0.194 ± 0.028 µM
same,"BDNF secretion from CCF-STTG1 cells, compound alone",CCF-STTG1 cells,no effect on its own
same,effect on PGE2-stimulated BDNF response mediated by EP2R,CCF-STTG1 cells; S1R-selective dose of BD1063,does not modify the PGE2 stimulated response
same,effect on BDNF secretion produced by S1R agonists 4-PPBP and (+)-SKF10047,CCF-STTG1 cells; antagonist 15 nM,significantly reduced BDNF secretion
same,effect on BDNF secretion produced by haloperidol metabolites I and II,CCF-STTG1 cells; antagonist BD1063 co-applied,significantly diminished BDNF secretion
C=C[C@@]1(C)CC(=O)[C@]2(O)[C@@]3(C)[C@@H](O)CCC(C)(C)[C@@H]3[C@H](O)[C@H](OC(C)=O)[C@@]2(C)O1 [Forskolin],increase in BDNF mRNA levels,"[1]; 100 μM forskolin + 100 μM IBMX, normalized to vehicle",> 3 fold
CC(C)Cn1c(=O)n(C)c(=O)c2[nH]cnc21 [IBMX],effect on BDNF mRNA levels,[1]; 100 μM,no effect on BDNF mRNA levels
CCCN(CCC)CCc1ccc(OC)c(OCCc2ccccc2)c1 [NE100],IC50,human S2R; [3H]-DTG,0.046 ± 0.0064 µM
same,Ki,human S2R; [3H]-DTG,0.043 ± 0.006 µM
COc1ccc2cc(OCC3(C(=O)O)CN(C(=O)c4ccc(F)cc4)C3)ccc2c1 [PF-04418948],EP2 receptor occupancy,EP2R,99.9%
same,"BDNF secretion from CCF-STTG1 cells, compound alone",CCF-STTG1 cells,no effect by itself
same,effect on PGE2-stimulated BDNF secretion,CCF-STTG1 cells; antagonist 10 μM vs PGE2,blocked the stimulatory effect of PGE2
"CCCCC[C@H](O)/C=C/[C@H]1[C@H](O)CC(=O)[C@@H]1C/C=C\CCCC(=O)O [PGE2, Prostaglandin E2]",displacement of specifically bound radioligand from S1R,"human S1R [2]; 10 μM, [3H]-(+)-pentazocine",unable to displace
same,displacement of specifically bound radioligand from S2R,"human S2R; 10 μM, [3H]-DTG",unable to displace
same,"secreted BDNF, maximal stimulation","CCF-STTG1 cells; 10 μM, ± SEM, n = 6 experiments, baseline 75.4 ± 6.9",128.6 ± 12.8 pg/mL
same,"BDNF secretion from CCF-STTG1 cells, compound alone",CCF-STTG1 cells,secreted BDNF in a concentration-dependent manner
CN1CCN(C2=Nc3cc(Cl)ccc3Nc3ccccc32)CC1 [clozapine],"affinity for the S1R, in words",human S1R [3],essentially no affinity
"OC1(c2ccc(Cl)cc2)CCNCC1 [haloperidol metabolite I, 4-(4-Chlorophenyl)-4-hydroxypiperidine]",effect on BDNF mRNA levels,[1]; 100 μM,no effect on BDNF mRNA levels
same,Ki,human S1R [3]; read-out: affinity (Ki) for the S1R,0.128 µM
same,fold lower affinity for the S1R than haloperidol and reduced haloperidol,human S1R [3],> 75 fold
same,"BDNF secretion from U87MG cells, compound alone",U87MG cells,facilitated BDNF secretion
same,"BDNF secretion from CCF-STTG1 cells, compound alone",CCF-STTG1 cells,facilitated BDNF secretion
"O=C(O)CCC(=O)c1ccc(F)cc1 [haloperidol metabolite III, 3-(4-Fluorobenzoyl)propionic acid]","affinity for the S1R, in words",human S1R [3],essentially no detectable affinity
"O=C(CCCN1CCC(O)(c2ccc(Cl)cc2)CC1)c1ccc(F)cc1 [haloperidol, Haloperidol]",protection against ischemic stroke,ischemic stroke,protected rats against an ischemic stroke
same,"BDNF secretion from U87MG cells, compound alone",U87MG cells,"but not haloperidol, facilitated BDNF secretion"
same,"BDNF secretion from CCF-STTG1 cells, compound alone",CCF-STTG1 cells,"but not haloperidol, facilitated BDNF secretion"
(+)-SKF10047,"BDNF secretion from CCF-STTG1 cells, compound alone",CCF-STTG1 cells,facilitated BDNF secretion

# — PMC5375023 (Neurochemistry international, 2017)
